Assay [1] concerns Streptococcus sp. 'group A'. The experiment in a line: Streptococcus pyogenes SK(-)GAS viability under kanamycin – luminescence, BacTiterGlo, confirmation, counter-screen for streptokinase expression inhibitor project, dose response (AID 1900). The format is functional, organism-based.
In a further assay the test system is Streptococcus. The assay can be described thus: GAS UMAA2166 growth inhibition – luminescence, BacTiterGlo, counter-screen for streptokinase expression inhibitor project, dose response (AID 1915).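 Note: potency for reduction of bacterial viability or growth.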 The format is functional, organism-based. (Counterscreens check selectivity or assay interference.)
Assay [2] in a line: Luminescence Cell-Based Dose Retest to Confirm Inhibitors of Cancer Stem Cells. [Related pubchem assays (depositor defined):AID2717, AID2721]. The format is functional. The settings on record: Homo sapiens.
Another assay addresses Cytochrome P450 3A4 (Homo sapiens, UniProt P08684).
Assay [3] concerns the target T1, Rac GTPase-activating protein 1 (Homo sapiens, UniProt Q9H0H5).
T1 sequence (Q9H0H5 whole entry): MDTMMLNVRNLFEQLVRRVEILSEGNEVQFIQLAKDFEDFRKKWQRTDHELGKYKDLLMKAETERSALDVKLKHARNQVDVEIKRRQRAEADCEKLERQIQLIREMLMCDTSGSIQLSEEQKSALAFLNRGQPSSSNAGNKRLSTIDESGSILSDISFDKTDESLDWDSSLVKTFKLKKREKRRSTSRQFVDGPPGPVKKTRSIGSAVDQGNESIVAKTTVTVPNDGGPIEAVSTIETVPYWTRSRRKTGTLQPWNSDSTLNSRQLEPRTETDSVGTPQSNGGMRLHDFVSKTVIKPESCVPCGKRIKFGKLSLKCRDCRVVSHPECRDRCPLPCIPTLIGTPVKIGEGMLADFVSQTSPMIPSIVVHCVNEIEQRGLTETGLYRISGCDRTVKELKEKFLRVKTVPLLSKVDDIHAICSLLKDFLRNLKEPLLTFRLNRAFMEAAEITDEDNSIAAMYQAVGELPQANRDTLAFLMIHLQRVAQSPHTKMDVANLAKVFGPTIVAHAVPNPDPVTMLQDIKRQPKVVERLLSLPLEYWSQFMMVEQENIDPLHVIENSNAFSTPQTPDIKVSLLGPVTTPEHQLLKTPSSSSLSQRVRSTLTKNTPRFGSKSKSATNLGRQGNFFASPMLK
The experiment in a line: blockers of MgcRacGAP-driven Rac1 GTP hydrolysis – biochemical, ADP Hunter fluorescence, primary and confirmatory, confirmation (AID 624330). It is filed as functional.

Assay [4] in a line: Trypanosoma cruzi growth suppression in host cells – NIH3T3 host cells, beta-gal luminescence, confirmation (AID 2044).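 Note: intracellular parasites grown in NIH/3T3 mouse fibroblasts as host cells; luminescent beta-galactosidase reporter signal from transgenic T. cruzi replicating inside host cells; inhibitors lower the luminescence signal.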 The format is functional, cell-based.
Assay [5] can be described thus: NIH3T3 cell viability loss – ATP luminescence, mouse fibroblasts, counter-screen, dose response (AID 2010).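 Note: cells exposed to compound for about 90 hours before reading.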 It is filed as functional, cell-based.
A further assay concerns the target T2, Cytochrome P450 1A2 (Homo sapiens, UniProt P05177).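 Note: PubChem cytochrome P450 panel assay, CYP1A2 panel member.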
T2 sequence (P05177 whole entry): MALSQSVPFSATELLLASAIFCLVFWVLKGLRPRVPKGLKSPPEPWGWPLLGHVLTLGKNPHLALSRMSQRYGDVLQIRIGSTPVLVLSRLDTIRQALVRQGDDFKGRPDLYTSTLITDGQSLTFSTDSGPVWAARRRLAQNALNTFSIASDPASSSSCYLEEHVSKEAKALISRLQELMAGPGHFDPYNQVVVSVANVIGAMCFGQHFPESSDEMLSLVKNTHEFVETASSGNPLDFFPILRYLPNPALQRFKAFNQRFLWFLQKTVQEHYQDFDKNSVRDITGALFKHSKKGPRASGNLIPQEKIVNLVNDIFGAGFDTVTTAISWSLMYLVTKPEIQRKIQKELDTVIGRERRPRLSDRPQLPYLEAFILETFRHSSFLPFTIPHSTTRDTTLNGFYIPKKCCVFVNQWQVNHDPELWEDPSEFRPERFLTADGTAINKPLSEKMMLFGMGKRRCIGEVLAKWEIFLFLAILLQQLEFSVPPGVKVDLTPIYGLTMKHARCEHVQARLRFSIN

Each structure is given as a SMILES string. Calls of active or inactive are those of the source.

Chain of Cytochrome P450 3A4 (P08684 whole entry): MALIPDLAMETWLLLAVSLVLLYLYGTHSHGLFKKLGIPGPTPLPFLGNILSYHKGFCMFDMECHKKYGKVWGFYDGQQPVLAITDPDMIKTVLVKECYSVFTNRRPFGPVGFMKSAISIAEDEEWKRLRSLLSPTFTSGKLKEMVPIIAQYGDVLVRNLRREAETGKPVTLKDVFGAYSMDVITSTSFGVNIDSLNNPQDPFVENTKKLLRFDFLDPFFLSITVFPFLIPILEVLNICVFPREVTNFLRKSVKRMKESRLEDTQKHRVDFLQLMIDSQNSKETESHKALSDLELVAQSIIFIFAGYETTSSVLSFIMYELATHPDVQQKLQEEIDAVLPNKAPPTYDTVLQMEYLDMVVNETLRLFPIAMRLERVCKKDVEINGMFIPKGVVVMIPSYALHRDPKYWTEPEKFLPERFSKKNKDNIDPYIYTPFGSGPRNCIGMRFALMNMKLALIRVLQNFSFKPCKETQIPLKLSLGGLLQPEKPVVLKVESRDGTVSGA

Usually EC50 stands for the concentration giving half of the maximal effect. As for `Cc1c(C(=O)Nc2ccc3c(c2)OCCO3)sc2nc(-c3ccccc3)cn12`, the EC50 in assay [1] was 3.01 µM (active); in the assay with Streptococcus, 7.44 µM (active). In general, AC50 refers to the concentration at which the activity in the assay is half-maximal. On to `COc1cccc(-c2sc3ccc(OC)cc3c2C#CCC(C)O)c1` (stereo not given), for which the half-maximal activity concentration (AC50) in assay [2] was 3.66 µM (active). On to `COCCNC(=O)c1onc(CSc2ccc(Cl)cc2)c1C(=O)O`, for which, at Cytochrome P450 3A4, the AC50 is 15.8 µM (inconclusive). As to `Cc1nc2ccc(Br)cn2c1C(=O)N/N=C\c1ccc(C(C)C)cc1`, the half-maximal activity concentration (AC50) in assay [2] was 2.75 µM (active). In the case of `CCS(=O)(=O)N1CCC(C(=O)NCCCOC)CC1`, on Cytochrome P450 3A4, the half-maximal activity concentration (AC50) was 0.0562 µM (inconclusive). With `CCc1ccc(-c2cc3c(=O)n(CC(=O)NCCN4CCCCC4C)nc(C)n3n2)cc1` (stereo not given), the concentration at half-maximal activity (AC50) in assay [2] was 2.45 µM (active). One may read the IC50 as the concentration at which inhibition is half-maximal. In the case of `Oc1ccc(Nc2ncnc3c2oc2ccccc23)cc1`, in assay [3], the half-maximal inhibitory concentration (IC50) is 15 µM (active).

For `CN(CCc1ccccn1)Cc1ccc(Cl)c(Cl)c1`, the EC50 in assay [4] is 0.244 µM (active); in assay [5], > 60 µM (not active). On to `CN(C)C=O.O=[N+]([O-])c1cccc(COc2ncnc3cc([N+](=O)[O-])ccc23)c1`, for which the EC50 is 1.93 µM (active) in assay [4] and > 60 µM (not active) in assay [5]. Turning to `CCCCNC(=O)CCc1c(C)nc2c(c(C)nn2-c2ccccc2)c1C`, the results for the EC50 in assay [4] and in assay [5] were 1.39 µM (active) and > 30 µM (not active), respectively. Turning to `COc1ccc(CN(C)CC(=O)Nc2ccc(Cl)cc2C(F)(F)F)c(OC)c1`, the IC50 in assay [3] is 84.4 µM (active). Regarding `Oc1ccc2ccc(Cl)cc2c1`, in assay [3], the IC50 is 41.9 µM (active). Take `COC(=O)c1ccc(-c2noc(CN(Cc3ccncc3)CC3CCCO3)n2)cc1` (stereo not given): the results for the concentration giving a half-maximal response (EC50) in assay [4] and in assay [5] were 2.46 µM (active) and > 60 µM (inconclusive), respectively.

`Cc1cccc(NC(=S)N(CCc2nc3cc(C)c(C)cc3[nH]2)Cc2cccnc2)c1`: the 50% effective concentration (EC50) in assay [4] is 0.853 µM (active); in assay [5], > 60 µM (not active). `COc1ccc2[nH]c3c(c2c1)CCN=C3C`: the concentration at half-maximal activity (AC50) at Cytochrome P450 3A4 was 5.01 µM (inconclusive). For the molecule `O=C(O)[C@@H]1CCN(Cc2oc(CO)cc(=O)c2O)C1`, the AC50 on Cytochrome P450 1A2 was 10 µM (inconclusive). For `COc1cc(C(=O)N/N=C/c2cn(Cc3ccccc3)c3ccccc23)ccc1O`, in assay [3], the IC50 is 90.1 µM (active).

Turning to `CC1=C(C(=O)Nc2cccnc2)C(c2cccnc2)n2nc(-c3cccs3)nc2N1` (stereo not given), the half-maximal activity concentration (AC50) at Cytochrome P450 1A2 was 5.01 µM (inconclusive). As to `CCOc1cc(-c2cc(-c3ccc(NC(C)=O)cc3)nc(N)c2C#N)ccc1O`, the results for the EC50 (in assay [1]; in the assay with Streptococcus) were 0.651 µM (active) and 6.34 µM (active), respectively. `CN1CCN(c2ncc3nc(CCc4ccccc4)c(=O)n(C4CC4)c3n2)CC1`: the AC50 is 12.6 µM (inconclusive) on Cytochrome P450 1A2 and 15.8 µM (inconclusive) at Cytochrome P450 3A4. Turning to `Cn1c(=O)c2c(nc(Cl)n2Cc2ccc(Cl)c(Cl)c2)n(C)c1=O`, the AC50 on Cytochrome P450 3A4 is 15.8 µM (inconclusive). On to `COc1ccc(C(c2nnnn2Cc2ccccc2)N2CCN(c3nc4ccccc4s3)CC2)cc1` (stereo not given), for which the results for the EC50 in assay [4] and in assay [5] were 3 µM (active) and 8.63 µM (active), respectively. As for `CCc1ccccc1NC(=O)CN(c1ccc(OC)cc1OC)S(=O)(=O)c1ccccc1[N+](=O)[O-]`, the EC50 in assay [4] is 2.25 µM (active); in assay [5], > 60 µM (not active).

As for `CCCN1C[C@H](CSC)C[C@H]2c3cccc4[nH]cc(c34)C[C@@H]21`, the AC50 at Cytochrome P450 1A2 is 3.16 µM (inconclusive).

Regarding `Cc1c(C)n(CCCN(C)C)c2ncnc(Nc3ccc(F)cc3)c12`, the concentration for a half-maximal effect (EC50) is 0.9 µM (active) in assay [4] and > 30 µM (not active) in assay [5].

With `CC(C)NCC(O)COC1C2CC3CC(C2)CC1C3` (stereo not given), the values for the EC50 in assay [4] and in assay [5] were 1.14 µM (active) and > 60 µM (not active), respectively.

Consider `COc1ccc(/C=N/N(Cc2ccccc2)c2ccccc2)cc1O`, for which the half-maximal activity concentration (AC50) in assay [2] was 6.09 µM (active). `Clc1ccc(COc2cccc(CNCc3ccncc3)c2)cc1`: the concentration giving a half-maximal response (EC50) in assay [4] was 3.42 µM (active); in assay [5] it was > 60 µM (not active). The like results for `Cc1ccc(Cl)cc1N1CCN(C(=O)c2ccc(CN3CCOCC3)cc2)CC1` were, in that order, 2.13 µM (active) and 4.63 µM (active).

In the case of `Cc1ccc(C)c(-n2c(Cc3cc(O)nc(O)n3)nnc2SCC(=O)NCC2CCCO2)c1` (stereo not given), the half-maximal activity concentration (AC50) at Cytochrome P450 3A4 was 31.6 µM (inconclusive). Take `Cc1nn(CC(=O)NC2C(=O)N3C(C(=O)O)=C(CSc4nnnn4C)CSC23)cc1Br` (stereo not given): the EC50 was 0.072 µM (active) in assay [1] and 0.316 µM (active) in the assay with Streptococcus. `COc1ccc(NC(=O)N2CCCC3(CCN(C(=O)c4cnccn4)CC3)C2)cc1`: the half-maximal activity concentration (AC50) on Cytochrome P450 3A4 was 15.8 µM (inconclusive). Consider `O=C(Nc1ccccc1)N1CCCC2(CCNCC2)C1`, for which the AC50 at Cytochrome P450 1A2 was 25.1 µM (inconclusive); on Cytochrome P450 3A4, 20 µM (inconclusive). For `N#CC1=C(N)NC(SCc2ccc(Br)cc2)=C(C#N)C12CCCCC2`, the EC50 in assay [4] is 3.29 µM (active); in assay [5] it was > 60 µM (not active). `O=c1ccn(-c2ccccc2)[nH]1`: the half-maximal inhibitory concentration (IC50) in assay [3] was 46.9 µM (active). In the case of `Cn1cc(-c2nc3cnc(N4CCNCC4)nc3n(C)c2=O)c2ccccc21`, the AC50 on Cytochrome P450 1A2 was 15.8 µM (inconclusive).

`Nc1nc2c(C(=O)NCc3cccs3)nnn2c2cccc(Cl)c12`: at Cytochrome P450 1A2, the AC50 is 1 µM (inconclusive). For the molecule `COc1cc2nc(=S)n(CCCN3CCOCC3)c(N)c2cc1OC`, in assay [3], the half-maximal inhibitory concentration (IC50) was 202 µM (active). `CCn1c(NC(=O)c2cccc(Cn3cc(Cl)cn3)c2)nc2ccccc21`: the half-maximal effective concentration (EC50) was 3.97 µM (active) in assay [1] and 18.6 µM (active) in the assay with Streptococcus. Regarding `CC1=C(/C=C\C(=O)O)C(C)(C)CCC1`, the half-maximal activity concentration (AC50) at Cytochrome P450 1A2 is 6.31 µM (inconclusive). Turning to `COc1ccc(-c2c[n+](CC(=O)N3c4ccccc4Sc4ccccc43)c3n2CCC3)cc1`, the EC50 was 0.648 µM (active) in assay [4] and > 60 µM (not active) in assay [5]. For the molecule `CN1CCN(c2ccnc(-c3ccc(N(C)C)cc3)n2)CC1`, the AC50 on Cytochrome P450 3A4 was 15.8 µM (inconclusive). With `COC(=O)c1ccc(N2CCN(c3ccccc3)CC2)c(NC(=O)C2CC2)c1`, the AC50 on Cytochrome P450 1A2 was 39.8 µM (inconclusive); at Cytochrome P450 3A4, 25.1 µM (inconclusive). For `CCO/C(O)=C(/C#N)c1nc2ccccc2nc1N(CC(C)C)CC(C)C`, in assay [2], the concentration at half-maximal activity (AC50) is 6.07 µM (active). Take `CCC(C)c1ccccc1NC(=O)COC(=O)c1ccc2[nH]c3c(c2c1)CCCC3` (stereo not given): the half-maximal activity concentration (AC50) in assay [2] is 2.09 µM (active).

With `O=[N+]([O-])c1ccc(Nc2nc(NC3CCCCC3)nc(N3CCCC3)n2)cc1`, the EC50 in assay [4] was 1.75 µM (active); in assay [5], > 60 µM (not active). Turning to `COc1cc(/C=N/N=C2\CC3CCC2(C)C3(C)C)ccc1O` (stereo not given), in assay [3], the concentration for half-maximal inhibition (IC50) was 54.4 µM (active).

Consider `C#CCCCO/N=C1/C[C@@H](O)[C@@H](O)[C@@H]2[C@@H]3C(=O)N(CCC(=O)OCC)C(=O)[C@H]3CC[C@@H]12`, for which the half-maximal activity concentration (AC50) on Cytochrome P450 3A4 is 3.16 µM (inconclusive). On to `COc1cccc(Oc2nc(-c3ccncc3)nc3ccccc23)c1`, for which the EC50 in assay [4] is 2.41 µM (active); in assay [5] it was 7.86 µM (active). On to `COc1cc(/C=N/Nc2nc(C)cc(C)n2)ccc1O`, for which the half-inhibitory concentration (IC50) in assay [3] was 47.1 µM (active).

Regarding `COc1ccc(-c2nc3cnc(OC)nc3n(CCC#N)c2=O)cc1`, the AC50 on Cytochrome P450 1A2 is 6.31 µM (inconclusive). Consider `COc1ccc(-n2nc([N+](=O)[O-])c(NCCc3cccc(C)c3)[n+]2[O-])cc1`, for which the half-maximal effective concentration (EC50) in assay [4] is 0.48 µM (active); in assay [5], > 60 µM (inconclusive).
